Reference: the NIST ThermoML archive (doi:10.1021/je700152c)

Test: molar heat capacity at saturation pressure

CCCCn1cc[n+](C)c1.Cc1ccc(S(=O)(=O)[O-])cc1 [1-butyl-3-methylimidazolium tosylate]
Details | molar heat capacity [J/K/mol]
283.38 K, Crystal 1 | 400.74
283.57 K, Crystal 1 | 401.36
284.36 K, Metastable crystal | 414.71
285.22 K, Crystal 1 | 405.4
285.23 K, Crystal 1 | 405.09
285.41 K, Crystal 1 | 405.71
286.18 K, Metastable crystal | 418.44
287.05 K, Crystal 1 | 409.74
287.07 K, Crystal 1 | 409.12
287.24 K, Crystal 1 | 410.37
288 K, Metastable crystal | 422.47
288.87 K, Crystal 1 | 414.71
288.9 K, Crystal 1 | 414.09
289.06 K, Crystal 1 | 415.64
289.81 K, Metastable crystal | 426.82
290.68 K, Crystal 1 | 419.06
290.72 K, Crystal 1 | 418.75
290.87 K, Crystal 1 | 419.99
291.62 K, Metastable crystal | 431.16
292.49 K, Crystal 1 | 423.71
292.53 K, Crystal 1 | 423.4
292.67 K, Crystal 1 | 424.02
293.42 K, Metastable crystal | 435.51
294.29 K, Crystal 1 | 427.13
294.33 K, Crystal 1 | 428.06
294.47 K, Crystal 1 | 427.44
295.21 K, Metastable crystal | 439.86
296.09 K, Crystal 1 | 431.47
296.13 K, Crystal 1 | 432.72
296.27 K, Crystal 1 | 432.09
296.99 K, Metastable crystal | 445.13
297.87 K, Crystal 1 | 436.13
297.92 K, Crystal 1 | 437.06
298.05 K, Crystal 1 | 436.75
298.77 K, Metastable crystal | 450.1
299.66 K, Crystal 1 | 440.79
299.71 K, Crystal 1 | 442.65
299.83 K, Crystal 1 | 442.03
300.21 K, Crystal 1 | 440.48
300.54 K, Metastable crystal | 455.38
301.54 K, Crystal 1 | 446.68
301.6 K, Crystal 1 | 447.93
301.72 K, Crystal 1 | 447.62
302.1 K, Crystal 1 | 445.44
302.41 K, Metastable crystal | 461.89
303.54 K, Crystal 1 | 452.58
303.6 K, Crystal 1 | 453.2
303.71 K, Crystal 1 | 453.82
304.1 K, Crystal 1 | 451.03
304.39 K, Metastable crystal | 469.03
305.52 K, Crystal 1 | 458.79
305.59 K, Crystal 1 | 460.34
305.69 K, Crystal 1 | 460.03
306.09 K, Crystal 1 | 457.24
306.36 K, Metastable crystal | 476.79
307.5 K, Crystal 1 | 465.93
307.57 K, Crystal 1 | 467.79
307.67 K, Crystal 1 | 467.17
308.07 K, Crystal 1 | 463.76
308.32 K, Metastable crystal | 485.8
309.47 K, Crystal 1 | 473.69
309.54 K, Crystal 1 | 474.93
309.64 K, Crystal 1 | 475.24
310.04 K, Crystal 1 | 471.52
310.26 K, Metastable crystal | 496.04
311.42 K, Crystal 1 | 482.69
311.49 K, Crystal 1 | 484.55
311.59 K, Crystal 1 | 484.24
311.76 K, Metastable crystal | 501.63
311.99 K, Crystal 1 | 479.59
313.37 K, Crystal 1 | 492.63
313.44 K, Crystal 1 | 494.8
313.53 K, Crystal 1 | 493.56
313.67 K, Metastable crystal | 515.91
313.94 K, Crystal 1 | 489.21
315.3 K, Crystal 1 | 503.49
315.37 K, Crystal 1 | 505.97
315.46 K, Crystal 1 | 503.18
315.56 K, Metastable crystal | 532.05
315.87 K, Crystal 1 | 499.45
317.22 K, Crystal 1 | 514.97
317.29 K, Crystal 1 | 518.39
317.39 K, Crystal 1 | 512.18
317.42 K, Metastable crystal | 550.67
317.78 K, Crystal 1 | 512.49
319.11 K, Crystal 1 | 529.25
319.18 K, Crystal 1 | 534.53
319.26 K, Metastable crystal | 573.33
319.29 K, Crystal 1 | 524.29
319.67 K, Crystal 1 | 527.08
320.98 K, Crystal 1 | 545.71
321.05 K, Crystal 1 | 553.47
321.06 K, Metastable crystal | 600.03
321.17 K, Crystal 1 | 538.26
321.53 K, Crystal 1 | 544.77
322.82 K, Crystal 1 | 565.88
322.82 K, Metastable crystal | 633.24
322.89 K, Crystal 1 | 575.51
323.03 K, Crystal 1 | 555.95
323.37 K, Crystal 1 | 566.5
324.53 K, Metastable crystal | 675.15
324.63 K, Crystal 1 | 590.72
324.69 K, Crystal 1 | 602.51
324.85 K, Crystal 1 | 578.61
325.17 K, Crystal 1 | 593.51
326.19 K, Metastable crystal | 727.92
326.41 K, Crystal 1 | 621.45
326.45 K, Crystal 1 | 635.42
326.64 K, Crystal 1 | 607.48
326.92 K, Crystal 1 | 628.28
328.13 K, Crystal 1 | 660.56
328.17 K, Crystal 1 | 676.7
328.38 K, Crystal 1 | 644.42
328.62 K, Crystal 1 | 675.15
329.79 K, Crystal 1 | 710.85
329.82 K, Crystal 1 | 728.23
330.07 K, Crystal 1 | 691.29
330.24 K, Crystal 1 | 740.02
340.93 K, Metastable crystal | 542.91
342.74 K, Crystal 1 | 648.45
342.82 K, Liquid | 542.91
343.34 K, Crystal 1 | 571.47
343.81 K, Crystal 1 | 550.05
343.97 K, Liquid | 543.84
344.54 K, Liquid | 545.4
344.72 K, Liquid | 544.77
345.34 K, Liquid | 544.46
346.06 K, Liquid | 544.77
346.43 K, Liquid | 546.33
346.46 K, Liquid | 546.64
346.61 K, Liquid | 546.02
347.35 K, Liquid | 545.71
348.14 K, Liquid | 546.02
348.31 K, Liquid | 547.57
348.49 K, Liquid | 547.26
348.72 K, Liquid | 547.57
348.77 K, Liquid | 547.57
350.2 K, Liquid | 549.43
350.6 K, Liquid | 549.12
350.64 K, Liquid | 549.12
352.08 K, Liquid | 550.98
352.48 K, Liquid | 550.36
352.5 K, Liquid | 550.36
353.97 K, Liquid | 552.22
354.36 K, Liquid | 551.6
354.37 K, Liquid | 551.91
355.86 K, Liquid | 553.47
356.24 K, Liquid | 553.16
356.25 K, Liquid | 553.16
357.74 K, Liquid | 555.02
358.11 K, Liquid | 554.71
358.12 K, Liquid | 554.71
359.64 K, Liquid | 556.26
359.97 K, Liquid | 555.95
360 K, Liquid | 555.95
361.53 K, Liquid | 557.81
361.84 K, Liquid | 557.5
361.88 K, Liquid | 557.5
363.42 K, Liquid | 559.05
363.75 K, Liquid | 558.74
365.3 K, Liquid | 560.3
365.62 K, Liquid | 559.98
367.19 K, Liquid | 561.85
367.5 K, Liquid | 561.54
